Test results as given in patent publication US7381724B2, “Optically active 5H-pyrrolo[3,4-b]pyrazine derivative, its preparation and pharmaceutical compositions containing same” (Sepracor Inc., priority 1991, dated 2008).

Key:
[1] = acute oral toxicity (LD50) in mice; details: mouse, in vivo, po
[2] = system: pentetrazol-induced convulsions; test: test of antagonist activity with respect to pentetrazol-induced convulsions; type: in vivo; details: relative to racemic zopiclone; technique of Everett and Richards
writhing reflex = writhing reflex test in mice; type: in vivo; details: relative to racemic zopiclone, technique of Zbinden and Randall
mice = test: acute oral toxicity (LD50) in mice; details: for toxicity compared with the racemate: relative to racemic zopiclone
[3] = system: central benzodiazepine receptor sites; test: test of affinity for central benzodiazepine receptor sites; type: binding; details: relative to racemic zopiclone; technique of Blanchard and Julou
animals = test: pharmacological properties in animals; type: in vivo

Structure (SMILES)	LD50 [1] [mg/kg]	potency of action, antagonist activity with respect to pentetrazol-induced convulsions [2]	potency of action, writhing reflex test (writhing reflex)	toxicity (LD50) (mice; administered orally to mice) [mg/kg]	toxicity compared with the racemate (mice)	potency of action, affinity for central benzodiazepine receptor sites [3]	properties displayed in animals (animals)
CN1CCN(C(=O)OC2c3nccnc3C(=O)N2c2ccc(Cl)cn2)CC1 (racemic) [zopiclone, 6-(5-chloro-2-pyridyl)-5-[(4-methyl-1-piperazinyl)carbonyloxy]-7-oxo-6,7-dihydro-5H-pyrrolo[3,4-b]pyrazine, reference compound]	~850						
CN1CCN(C(=O)O[C@H]2c3nccnc3C(=O)N2c2ccc(Cl)cn2)CC1 (single isomer, unassigned) [dextrorotatory isomer]		approximately twice as active	approximately twice as active	~1500	lower toxicity than that of the racemate	approximately twice as active	hypnotic, sedative, anxiolytic, muscle-relaxant and anticonvulsant properties
CN1CCN(C(=O)O[C@@H]2c3nccnc3C(=O)N2c2ccc(Cl)cn2)CC1 (single isomer, unassigned) [laevorotatory isomer, reference compound]		almost inactive	almost inactive		more toxic than the racemate	almost inactive	
